Source: ChEMBL document CHEMBL1136305, “Structure-activity relationships within a series of caspase inhibitors: effect of leaving group modifications” (Bioorg Med Chem Lett, 2003)

Key:
[1] = biological target: T1, Caspase-3 (Homo sapiens) (UniProt P42574); test: Inhibitory activity against caspase-3 (Csp-3)
T1 sequence (whole entry): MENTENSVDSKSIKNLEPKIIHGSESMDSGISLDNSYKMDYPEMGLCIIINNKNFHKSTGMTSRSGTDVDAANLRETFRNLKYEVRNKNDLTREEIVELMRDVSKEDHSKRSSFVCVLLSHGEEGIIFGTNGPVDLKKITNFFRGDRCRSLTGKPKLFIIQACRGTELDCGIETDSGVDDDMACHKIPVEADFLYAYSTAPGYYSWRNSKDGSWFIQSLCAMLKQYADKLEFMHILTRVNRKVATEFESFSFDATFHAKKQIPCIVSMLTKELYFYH

[2] = biological target: T2, Caspase-6 (Homo sapiens) (UniProt P55212); test: Inhibitory activity against caspase-6 (Csp-6)
T2 sequence (whole entry): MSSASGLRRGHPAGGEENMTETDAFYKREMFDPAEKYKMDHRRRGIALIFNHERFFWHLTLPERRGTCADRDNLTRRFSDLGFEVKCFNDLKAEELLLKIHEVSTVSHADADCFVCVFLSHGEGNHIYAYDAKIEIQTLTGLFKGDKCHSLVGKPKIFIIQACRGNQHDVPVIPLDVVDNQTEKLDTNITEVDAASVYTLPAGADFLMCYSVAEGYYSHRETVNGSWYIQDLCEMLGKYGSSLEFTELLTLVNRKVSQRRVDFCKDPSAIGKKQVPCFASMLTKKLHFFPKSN

[3] = biological target: T3, Caspase-1 (Mus musculus) (UniProt P29452); test: Inhibitory activity against murine caspase-1
T3 sequence (whole entry): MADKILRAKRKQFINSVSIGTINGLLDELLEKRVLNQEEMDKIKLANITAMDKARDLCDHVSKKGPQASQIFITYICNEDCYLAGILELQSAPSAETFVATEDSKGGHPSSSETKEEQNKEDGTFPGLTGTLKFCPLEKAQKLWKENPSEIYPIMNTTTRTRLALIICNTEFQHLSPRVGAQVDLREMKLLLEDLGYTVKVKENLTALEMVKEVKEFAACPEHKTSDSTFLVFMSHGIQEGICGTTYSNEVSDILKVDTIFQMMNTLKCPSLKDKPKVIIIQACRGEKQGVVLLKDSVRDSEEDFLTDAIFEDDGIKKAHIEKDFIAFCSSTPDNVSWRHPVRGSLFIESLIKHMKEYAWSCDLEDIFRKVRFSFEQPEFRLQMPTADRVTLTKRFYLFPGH

[4] = biological target: Caspase-8 (Homo sapiens) (UniProt Q14790); test: Inhibitory activity against caspase-8 (Csp-8)
[5] = (§1) Cellular assay in a model of neuronal apoptosis involving cortical neurons exposed to concanavalin A; format: functional
[6] = system: Jurkat; test: Cellular assay in a Fas-induced model of apoptosis in Jurkat cells; format: functional, cell-based; settings: Homo sapiens
[7] = organism: Homo sapiens; test: Cellular assay in an inflammation model measuring IL1-beta secretion from isolated human monocytes induced with Staph A; format: functional
[8] = biological target: T4, Caspase-3 (Homo sapiens, UniProt P42574); test: Binding affinity against caspase-3 (Csp-3)
T4 sequence (P42574 whole entry): T1 sequence (whole entry)

[9] = biological target: T5, Caspase-1 (Mus musculus, UniProt P29452); test: Binding affinity against Murine caspase-1 (mCsp-1)
T5 sequence (P29452 whole entry): T3 sequence (whole entry)

[10] = biological target: T2, Caspase-6 (Homo sapiens); test: Inhibitory activity against Caspase-6 (Csp-6); format: functional
[11] = as §1; format: functional; remark: listed apart in the source

Caspase-8 (Homo sapiens), sequence (Q14790 217-374 limits assumed): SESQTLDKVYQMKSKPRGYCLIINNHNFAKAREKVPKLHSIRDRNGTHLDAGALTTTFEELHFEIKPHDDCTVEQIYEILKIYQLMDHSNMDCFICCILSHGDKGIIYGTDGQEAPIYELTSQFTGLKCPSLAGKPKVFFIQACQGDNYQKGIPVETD
Caspase-8 (Homo sapiens), sequence (Q14790 385-479 limits assumed): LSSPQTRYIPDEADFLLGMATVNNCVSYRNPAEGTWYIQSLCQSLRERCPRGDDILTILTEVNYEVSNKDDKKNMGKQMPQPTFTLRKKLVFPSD

Row | Compound | k3/Ki [1] [M⁻¹ s⁻¹] | k3/Ki [2] [M⁻¹ s⁻¹] | k3/Ki [3] [M⁻¹ s⁻¹] | k3/Ki [4] [M⁻¹ s⁻¹] | IC50 [5] [µM] | IC50 [6] [µM] | IC50 [7] [µM] | Ki [8] [µM] | Ki [9] [µM] | k3/Ki [10] [M⁻¹ s⁻¹] | IC50 [11] [µM]
1 | CC(C)[C@H](NC(=O)COc1cccc2ccccc12)C(=O)N[C@@H](CC(=O)O)C(=O)COc1ccc(Oc2ccccc2)cc1 | 9520 | 370 | 1900 | 668 | > 50 | 12.7 | 19 |  |  |  | 
2 | CC(C)[C@H](NC(=O)COc1cccc2ccccc12)C(=O)N[C@@H](CC(=O)O)C(=O)COc1cccc2ccccc12 | 1.96e+06 |  | 354000 |  | 2.65 | > 100 | 19 | 0.0071 | 0.07 |  | 
3 | CC(C)[C@H](NC(=O)COc1cccc2ccccc12)C(=O)N[C@@H](CC(=O)O)C(=O)COc1c(F)cccc1F | 200000 | 9980 | 53900 | 9080 | 2.4 | 2.04 | > 100 |  |  |  | 
4 | CC(C)[C@H](NC(=O)COc1cccc2ccccc12)C(=O)N[C@@H](CC(=O)O)C(=O)COc1cc(F)c(F)cc1F | 24400 | 634 | 11400 | 668 | 4.16 | 39.3 | 16.7 |  |  |  | 
5 | CC(C)[C@H](NC(=O)COc1cccc2ccccc12)C(=O)N[C@@H](CC(=O)O)C(=O)COc1cccc(C(F)(F)F)c1F | 33900 | 683 | 7220 | 1030 | 3.7 | 50.4 | 18.2 |  |  |  | 
6 | CC(C)[C@H](NC(=O)COc1cccc2ccccc12)C(=O)N[C@@H](CC(=O)O)C(=O)COc1ccccc1C(F)(F)F | 20000 | 494 | 5630 | 75 | > 50 | > 100 | 17.3 |  |  |  | 
7 | CC(C)[C@H](NC(=O)COc1cccc2ccccc12)C(=O)N[C@@H](CC(=O)O)C(=O)COc1ccc(C#N)cc1 | 10200 | 46 | 3720 | 48 | > 50 | > 100 | 26.7 |  |  |  | 
8 | CC(C)[C@H](NC(=O)COc1cccc2ccccc12)C(=O)N[C@@H](CC(=O)O)C(=O)COc1ccc([N+](=O)[O-])cc1 | 8400 | 117 | 6130 | 137 | 13.5 | > 100 | 22.8 |  |  |  | 
9 | CC(C)[C@H](NC(=O)COc1cccc2ccccc12)C(=O)N[C@@H](CC(=O)O)C(=O)COc1ccc(-c2ccccc2)cc1 | 9990 | 270 | 1550 | 1310 | > 50 | 87.9 | 38.7 | 0.1 | 2.68 |  | 
10 | CC(C)[C@H](NC(=O)COc1cccc2ccccc12)C(=O)N[C@@H](CC(=O)O)C(=O)COc1ccc([N+](=O)[O-])cc1F | 36500 | 1770 | 12300 | 1850 | 6.2 | 30.3 | 15.8 |  |  |  | 
11 | CC(C)[C@H](NC(=O)COc1cccc2ccccc12)C(=O)N[C@@H](CC(=O)O)C(=O)COc1ccc(C(F)(F)F)cc1 | 13200 | 77 | 2580 | 196 | > 50 | > 100 | 12.3 |  |  |  | 
12 | CC(C)[C@H](NC(=O)COc1cccc2ccccc12)C(=O)N[C@@H](CC(=O)O)C(=O)COc1ccc2ccccc2c1 | 7520 |  | 263 |  | > 50 | > 100 | 15.9 | 0.09 | 3.17 |  | 
13 | CC(C)[C@H](NC(=O)COc1cccc2ccccc12)C(=O)N[C@@H](CC(=O)O)C(=O)COc1c(F)c(F)cc(F)c1F | 268000 | 78900 | 77500 | 30200 | 2.17 | 4.5 | 6.25 |  |  |  | 
14 | CC(C)[C@H](NC(=O)COc1cccc2ccccc12)C(=O)N[C@@H](CC(=O)O)C(=O)COc1ccc(F)c(F)c1F | 35800 | 253 | 11900 | 769 | > 50 | 35.8 | 20.6 |  |  |  | 
15 | CC(C)[C@H](NC(=O)COc1cccc2ccccc12)C(=O)N[C@@H](CC(=O)O)C(=O)COc1cc(F)cc(F)c1 | 9240 | 106 | 2170 | 154 | 11.6 | > 100 | 15.9 |  |  |  | 
16 | CC(C)[C@H](NC(=O)COc1cccc2ccccc12)C(=O)N[C@@H](CC(=O)O)C(=O)CF | 207000 |  | 129000 | 71700 | 3.05 | 0.24 | 0.95 |  |  | 36800 | 
17 | CC(C)[C@H](NC(=O)COc1cccc2ccccc12)C(=O)N[C@@H](CC(=O)O)C(=O)COc1ccccc1[N+](=O)[O-] | 73000 | 10700 | 23500 | 1810 | 5.85 | > 100 | 27.7 |  |  |  | 
18 | CC(C)[C@H](NC(=O)COc1cccc2ccccc12)C(=O)N[C@@H](CC(=O)O)C(=O)COc1ccc(F)c(F)c1 | 6460 | 86 | 1620 | 117 | 17 | > 100 | 16.2 |  |  |  | 
19 | CC(C)[C@H](NC(=O)COc1cccc2ccccc12)C(=O)N[C@@H](CC(=O)O)C(=O)COc1cc(F)cc(F)c1F | 60100 | 1510 | 14700 | 1470 | 3.75 | 30 | 11.2 |  |  |  | 
20 | CC(C)[C@H](NC(=O)COc1cccc2ccccc12)C(=O)N[C@@H](CC(=O)O)C(=O)COc1cccc(F)c1 | 17800 | 48 | 2730 | 461 | > 50 | > 100 | 12 |  |  |  | 
21 | CC(C)[C@H](NC(=O)COc1cccc2ccccc12)C(=O)N[C@@H](CC(=O)O)C(=O)COc1ccc(Oc2ccc(C(F)(F)F)cc2)cc1 | 6930 | 625 | 1540 | 1120 | > 50 | 9.3 | 24.9 |  |  |  | 
22 | CC(C)[C@H](NC(=O)COc1cccc2ccccc12)C(=O)N[C@@H](CC(=O)O)C(=O)COC(=O)c1c(Cl)cccc1Cl | 725000 | 56900 | 52100 | 17000 | 2.15 | 10.6 | 11.5 |  |  |  | 
23 | CC(C)[C@H](NC(=O)COc1cccc2ccccc12)C(=O)N[C@@H](CC(=O)O)C(=O)COc1c(F)c(F)c(-c2c(F)c(F)c(F)c(F)c2F)c(F)c1F | 52100 | 27000 | 6680 | 10400 | > 50 | 20 | 40 |  |  |  | 
24 | CC(C)[C@H](NC(=O)COc1cccc2ccccc12)C(=O)N[C@@H](CC(=O)O)C(=O)COc1c(F)cc(F)cc1F | 114000 | 5140 | 20700 | 9080 | 2.35 | 6.84 | 14.9 |  |  |  | 
25 | CC(C)[C@H](NC(=O)COc1cccc2ccccc12)C(=O)N[C@@H](CC(=O)O)C(=O)COc1ccccc1 | 19200 | 2400 | 3630 | 4260 |  | 14 | 11.2 |  |  |  | 38
26 | CC(C)[C@H](NC(=O)COc1cccc2ccccc12)C(=O)N[C@@H](CC(=O)O)C(=O)COc1cc(F)ccc1F | 49000 | 1330 | 12100 | 483 | 4.85 | > 100 | 19.7 |  |  |  | 
27 | CC(C)[C@H](NC(=O)COc1cccc2ccccc12)C(=O)N[C@@H](CC(=O)O)C(=O)COc1c(Cl)cccc1Cl | 179000 | 87700 | 25300 | 2710 | 2.75 | 3 | 15.3 |  |  |  | 
